From patent publication US9089486B2, “Process for the preparation of a pharmaceutical composition comprising ezetimibe” (LEK PHARMACEUTICALS D.D., priority 2009, dated 2015)
Read-outs that look alike come from different tables or passages of the source.

Key:
[1] = Particle size of ezetimibe by Malvern Mastersizer; type: physicochemical; conditions: ezetimibe particles, lactose in the blend dissolved
Text: After mixing of blend 2 in a high shear mixer, a good particle distribution could be reached. The size of the ezetimibe particles was not essentially changed.

[2] = cited from earlier work; for solubility in ethanol, methanol, and acetone: organic solvents
[3] = ambient temperature; cited from earlier work

Particle size d(0.1) [1]: 0.43 μm | Particle size d(0.5) [1]: 7.54 μm | Particle size d(0.9) [1]: 16.87 μm
SMILES: O=C1[C@H](CC[C@H](O)c2ccc(F)cc2)[C@@H](c2ccc(O)cc2)N1c1ccc(F)cc1 [Ezetimibe, ezetimibe]
solubility in ethanol, methanol, and acetone [2]: freely to very soluble | solubility in ethanol, methanol, and acetone ([2]; listed as ezetimibe): soluble | solubility in water [2]: practically insoluble | solubility in water ([2]; listed as ezetimibe): poorly soluble | stability [3]: stable
